# Experiments:
# Type in all cases: physicochemical
# [1] = Absorption characteristics: transmission spectrum of near-infrared absorbing layer of NIR filter (UV-visible spectrophotometer)
# Experimental: Further, the transmittance of the near-infrared absorbing layer can be measured by using an ultraviolet visible light spectrophotometer. For example, when the near-infrared absorbing layer is provided on a glass substrate, the transmittance is calculated by subtracting the transmittance of only the glass substrate. Note that the transmittance of light of the near-infrared absorbing layer refers to, unless otherwise stated, a ratio to light incident from a direction orthogonal to a main surface of a sample, the ratio of this light traveling straight inside the sample and transmitted to an opposite side. Further, when the transmittance is measured by making light incident from a direction other than the direction orthogonal to the main surface of the sample in the measurement of transmittance of light, an angle made by a straight line indicating the direction of the incident light to a line orthogonal to the main surface is called an incident angle.
# In the condition (ii-3), the value calculated by nd(B)×(λa−λc) (hereinafter, this value may also be described as “Is value”) is a value to be an index indicating steepness of the absorption curve in the vicinity of the boundary between the visible light region and the near-infrared region with respect to a transmission spectrum of the near-infrared absorbing layer. When this value is 115 or less, the absorption curve in the vicinity of the boundary between the visible light region and the near-infrared region is steep with respect to the near-infrared absorbing layer, which can be said as preferable for the NIR filter.
# That is, with respect to the transmission spectrum of the near-infrared absorbing layer, the smaller the difference (λa−λc) between the shortest wavelength λa with transmittance of 1% in the region of 650 nm to 800 nm and the wavelength λc with transmittance of 70% on a shorter wavelength side than the λa, the steeper the absorption curve in the vicinity of the boundary between the visible light region and the near-infrared region. Here, λa−λc also depends on a wavelength width having transmittance of 1% or less (λb−λa; λb is the longest wavelength with transmittance of 1% in the wavelength region of 650 nm to 800 nm). Accordingly, in order to compare and evaluate the steepness of the absorption curve in the above region of the transmission spectrum of the near-infrared absorbing layer, λb−λa is fixed to 30 nm. That is, λb−λa of the near-infrared absorbing layer which the present filter has is not limited to 30 nm.
# Further, in the Is value, (λa−λc) is multiplied by the refractive index nd(B) of the transparent resin (B) contained in the near-infrared absorbing layer as a coefficient. This is to standardize the difference in steepness among resins.
# Regarding transmittance (%/nm) of the NIR filters 1 to 109 obtained above, transmission spectra were measured and calculated by using an ultraviolet visible light spectrophotometer (U-4100 type spectrophotometer made by Hitachi High-Technologies Corporation). Analysis results of transmission spectra of the near-infrared absorbing layers which the NIR filters have are presented in Table 4, Table 5 and Table 6 for the NIR filters 1 to 25, 26 to 51, 52 to 75, respectively, and are presented in Table 7 and Table 8 for the NIR filters 76 to 94, 95 to 109, respectively. In Table 4 to Table 8, the ratios (parts by mass) of dyes to 100 parts by mass of the transparent resin (B) and film thicknesses of the near-infrared absorbing layers are described together.
# Further, conditions of preferred transmission spectra of the near-infrared absorbing layers in the present filter and Is values obtained by the formula: nd(B)×(λa-λc) described in above (ii-3) are described in Table 4 to Table 8 together with λa in the condition (ii-1) and λb-λa in the condition (ii-2). Note that values described in Table 4 to Table 8 are values obtained by subtracting transmittance of a glass plate from transmittance of an NIR filter. […]
# [2] = Solubility of dye to organic solvent; settings: 50° C., mass % of the dye to the mass of the entire solution; for Solubility to organic solvent: MIBK: methyl isobutyl ketone
# Experimental: Regarding the dyes (A11-1) to (A11-10) and (A11-20) to (A11-27) obtained above, solubility to organic solvent was evaluated as follows.
# Three kinds of solvents, cyclohexanone, methyl isobutyl ketone (MIBK), toluene, were used as the organic solvent in the solubility test. Note that in Table 3, % is mass % of the dye to the mass of the entire solution. Further, the temperature of each organic solvent in the solubility test was 50° C.
# [3] = Transmittance and 20% shift (incident angle dependency) of NIR filter having selected wavelength shielding layer; settings: NIR filter 110: dye 3.0 parts by mass per 100 of polyester resin B-OKP2 (nd(B) 1.64), with selected wavelength shielding layer and antireflection layer
# Experimental: In the present filter, the visible light transmittance is secured sufficiently by satisfying the condition (iv-1), and moreover, angle dependency which the dielectric multilayer film has is solved, and the light shielding property of the near-infrared region is secured sufficiently in a wide wavelength region without being affected by the influence of the incident angle by satisfying the conditions (iv-2) and (iv-3). • Here, in the condition (iv-3), the angle dependency is evaluated by using a shift of wavelength in 20% transmittance when the incident angle is 0 degree and when it is 30 degrees as an index.
# Transmittance of the NIR filter of Example 110 was measured as transmittance of light incident from a direction orthogonal to a main surface, that is, light with an incident angle of 0 degree and transmittance of light incident from a direction making an angle of 30 degrees relative to a line orthogonal to the main surface, that is, light with an incident angle of 30 degrees by using an ultraviolet visible light spectrophotometer (U-4100 type spectrophotometer made by Hitachi High-Technologies Corporation), so as to obtain a transmission spectrum. A 20% shift (30 degrees) is a difference between a value of a wavelength with transmittance of 20% of light with an incident angle of 0 degree (indicated as “λ20-0”) and a value of a wavelength with transmittance of 20% of light with an incident angle of 30 degrees (indicated as “λ20-30”).
# Moreover, a transmission spectrum of light with an incident angle of 40 degrees was obtained similarly. Further, the difference between a value of a wavelength with transmittance of 20% of light with an incident angle of 0 degree (λ20-0) and a value of a wavelength with transmittance of 20% of light with an incident angle of 40 degrees (indicated as “λ20-40”) was obtained as a 20% shift (40 degrees).
# The near-infrared absorbing layer was formed on a glass plate similarly to Example 7 except that a glass plate on which the selected wavelength shielding layer is formed was used on a face opposite to an application face of the coating liquid for forming the near-infrared absorbing layer. Moreover, the antireflection layer was formed on the near-infrared absorbing layer, so as to obtain the NIR filter 110. The film thickness in the selected wavelength shielding layer in its entirety was approximately 8.9 μm, and the film thickness in the antireflection layer in its entirety was approximately 0.34 μm. The transmittance of the obtained NIR filter 110 was measured, and 20% shifts (30 degrees) and (40 degrees) were obtained. Results thereof are presented in Table 9 together with structures of the near-infrared absorbing layer. FIG. 6 illustrates transmission spectra of light with incident angles of 0 degree, 30 degrees and 40 degrees of the wavelength region of 660 nm to 690 nm in the NIR filter 110 by a solid line, a dotted line and a dashed line, respectively.
# [4] = transparent resin acrylic resin BR50, nd(B) 1.56, film thickness 2.3 μm
# [5] = transparent resin polycarbonate EP5000, nd(B) 1.63, film thickness 2.4 μm
# [6] = transparent resin polycarbonate SP1516, nd(B) 1.60, film thickness 0.9 μm
# [7] = transparent resin polycarbonate SP3810, nd(B) 1.63, film thickness 1.0 μm
# [8] = transparent resin polycarbonate SP3810, nd(B) 1.63, film thickness 2.8 μm
compound,measurement,setting,value
"CC(=O)Nc1cc2c(cc1C1=C([O-])C(=c3cc4c(cc3NC(C)=O)=[N+](C)C(C)C4(C)C)C1=O)C(C)(C)C(C)N2C (centres unmarked) [Example A11-20, reference compound]",430 nm to 600 nm Average transmittance,[1]; [4],93.1%
same,Is value (nd(B)×(λa-λc)),[1]; [4],142.1
same,λa,[1]; [4],687 nm
same,λa − λc,[1]; [4],91 nm
same,λb,[1]; [4],717 nm
same,λb − λa,[1]; [4],30 nm
same,λc,[1]; [4],596 nm
same,λmax,[1]; [4],704 nm
same,430 nm to 600 nm Average transmittance,[1]; [5],95.6%
same,Is value (nd(B)×(λa-λc)),[1]; [5],122.4
same,λa,[1]; [5],693 nm
same,λa − λc,[1]; [5],68 nm
same,λb,[1]; [5],723 nm
same,λb − λa,[1]; [5],30 nm
same,λc,[1]; [5],618 nm
same,λmax,[1]; [5],710 nm
same,430 nm to 600 nm Average transmittance,[1]; [6],94.5%
same,Is value (nd(B)×(λa-λc)),[1]; [6],126.4
same,λa,[1]; [6],690 nm
same,λa − λc,[1]; [6],79 nm
same,λb,[1]; [6],720 nm
same,λb − λa,[1]; [6],30 nm
same,λc,[1]; [6],611 nm
same,λmax,[1]; [6],706 nm
same,430 nm to 600 nm Average transmittance,[1]; [7],93.6%
same,Is value (nd(B)×(λa-λc)),[1]; [7],129.1
same,λa,[1]; [7],693 nm
same,λa − λc,[1]; [7],79 nm
same,λb,[1]; [7],723 nm
same,λb − λa,[1]; [7],30 nm
same,λc,[1]; [7],614 nm
same,λmax,[1]; [7],710 nm
same,430 nm to 600 nm Average transmittance,[1]; [8],95.0%
same,Is value (nd(B)×(λa-λc)),[1]; [8],124.2
same,λa,[1]; [8],694 nm
same,λa − λc,[1]; [8],76 nm
same,λb,[1]; [8],724 nm
same,λb − λa,[1]; [8],30 nm
same,λc,[1]; [8],618 nm
same,λmax,[1]; [8],710 nm
same,Solubility to organic solvent: Cyclohexanone,[2],<1.0% mass %
same,Solubility to organic solvent: MIBK,[2],<1.0% mass %
same,Solubility to organic solvent: Toluene,[2],<1.0% mass %
CCCCC(CC)C(=O)Nc1cc2c(cc1C1=C([O-])C(=c3cc4c(cc3NC(=O)C(CC)CCCC)=[N+](C(C)C)C(C)C4(C)C)C1=O)C(C)(C)C(C)N2C(C)C (centres unmarked) [Example A11-7],430 nm to 600 nm Average transmittance,[1]; [4],96.1%
same,Is value (nd(B)×(λa-λc)),[1]; [4],101.5
same,λa,[1]; [4],695 nm
same,λa − λc,[1]; [4],65 nm
same,λb,[1]; [4],715 nm
same,λb − λa,[1]; [4],30 nm
same,λc,[1]; [4],630 nm
same,λmax,[1]; [4],712 nm
same,430 nm to 600 nm Average transmittance,[1]; [5],96.9%
same,Is value (nd(B)×(λa-λc)),[1]; [5],104.5
same,λa,[1]; [5],700 nm
same,λa − λc,[1]; [5],64 nm
same,λb,[1]; [5],730 nm
same,λb − λa,[1]; [5],30 nm
same,λc,[1]; [5],636 nm
same,λmax,[1]; [5],715 nm
same,430 nm to 600 nm Average transmittance,[1]; [7],95.8%
same,Is value (nd(B)×(λa-λc)),[1]; [7],106.3
same,λa,[1]; [7],700 nm
same,λa − λc,[1]; [7],65 nm
same,λb,[1]; [7],730 nm
same,λb − λa,[1]; [7],30 nm
same,λc,[1]; [7],635 nm
same,λmax,[1]; [7],712 nm
same,430 nm to 600 nm Average transmittance,[1]; [8],96.5%
same,Is value (nd(B)×(λa-λc)),[1]; [8],104.6
same,λa,[1]; [8],700 nm
same,λa − λc,[1]; [8],64 nm
same,λb,[1]; [8],730 nm
same,λb − λa,[1]; [8],30 nm
same,λc,[1]; [8],636 nm
same,λmax,[1]; [8],716 nm
same,Solubility to organic solvent: Cyclohexanone,[2],10%< mass %
same,Solubility to organic solvent: MIBK,[2],3.00% mass %
same,Solubility to organic solvent: Toluene,[2],10%< mass %
same,20% shift 30 degrees (λ20-0-λ20-30),[3],1 nm
same,20% shift 40 degrees (λ20-0-λ20-40),[3],3 nm
same,20%-transmittance wavelength of 0-degree incident angle (λ20-0),[3],668 nm
same,20%-transmittance wavelength of 30-degree incident angle (λ20-30),[3],667 nm
same,20%-transmittance wavelength of 40-degree incident angle (λ20-40),[3],665 nm
same,Transmittance 420 nm to 620 nm (average),[3],88.6%
same,Transmittance 700 nm to 1100 nm (average),[3],0.03%
same,Transmittance 710 nm to 1100 nm (maximum),[3],0.28%
